“And” between values parts separate entries of the source, which are not always exact repeats. Identical values can stand only once.
Legend:
[1] = tested on: whole cell lysates of rat fibroblasts; experiment: Staining of two-dimensional gels of rat fibroblast lysates (Example 23); conditions: 2-D gel, photography with 490-nm long pass filter
Description: The non-fixative nature of the staining solution is illustrated by evaluating passive elution of proteins from a polyacrylamide matrix. Passive diffuision of proteins is evaluated by staining two-dimensional gels in 7% acetic acid or in phosphate-buffered saline using Compound 9. Whole cell lysates of rat fibroblasts are extracted according to standard procedures for mammalian cells. Approximately 50 μg total protein is applied per gel and large format two dimensional gel electrophoresis is performed by standard methods. Compound 9 staining solution is prepared by diluting the stock reagent to 2 μM in either 7.5% acetic acid or 50 mM Na2HPO4, 150 mM NaCl, pH 7.0 while vigorously mixing. Approximately 500-750 mL of Compound 9 staining solution is used for a typical large format 2-D gel (20 cm×20 cm×1 mm). The gel is placed into the staining solution and the container is covered with aluminum foil to protect the dye from bright light. The gel is gently agitated for at least 30 minutes at room temperature using an orbital shaker (50 RPM). After staining the gel is briefly dipped in water and visualized on a UV light box. […] As little as 1 ng of protein can be visualized when the fluorescent image is recorded by photography using a cellophane 490-nm long pass filter. […]

[2] = Fluorescence excitation/emission spectra in 2% SDS at acidic and neutral pH (Example 20, FIG. 1); type: physicochemical; conditions: 2% SDS in 7% acetic acid or phosphate-buffered saline
Description: FIG. 1: Fluorescence excitation/emission spectra of Compound 9. Spectra were generated in 7% acetic acid, 2% SDS. […] Identical spectra were obtained in phosphate-buffered saline, 2% sodium dodecyl sulfate (SDS).
Excitation/emission profiles of Compound 9 are obtained by incubating a […] solution of the dye in 2% SDS that has been prepared in either 7% acetic acid or 50 mM Na2HPO4, 150 mM NaCl, pH 7.0 for 30 minutes. Without the SDS, the dye gives very low fluorescence emission in aqueous solutions or buffers. Measurements are made in a quartz cuvette using a Hitachi F4500 fluorescence Spectrometer (Hitachi, Tokyo, Japan) or similar instrument. Spectra generated in 7% acetic acid, 2% SDS can be essentially superimposed on spectra obtained in phosphate-buffered saline, 2% SDS. Excitation maxima are observed at 300 and 490 nm with emission set at 640 nm. An emission maximum is observed at 640 nm with excitation set at 440 nm. This excitation profile is ideally suited for visualization of the stain using a 302-nm UV-B transilluminator, 473-nm second harmonic generation (SHG) laser or 488-nm argon-ion laser. The dye can also be visualized on a blue-light box (DARK READER™, Clare Research, Boulder, Colo.). The emission maximum of the Compound 9 is observed at 640 nm, and is thus spectrally well matched to emission band-pass filters optimized for the Texas Red dye.

[3] = tested on: proteins; experiment: Staining of proteins separated in presence of alternative detergents; conditions: alternative detergents instead of SDS
[4] = tested on: proteins; experiment: Dye staining and dye stability in 12.5% trichloroacetic acid
Description: To make a staining mixture to combine with the sample mixture, including to test new dyes for their ability to stain proteins in a variety of situations, the selected dye is typically first dissolved in an organic solvent, such as DMSO, DMF or methanol, usually to a dye concentration of 1-10 mM. This concentrated stock solution is then generally diluted with an aqueous solution according to the assay being performed. Staining solutions can be stored and used for months without signal loss. The selected dye effectively stains proteins in a wide range of buffers if 100 mM NaCl is included in the staining solution. Acceptable buffers include, among others, 50-100 mM formate buffer, pH 4.0, sodium citrate, pH 4.5, sodium acetate, pH 5.0, MES, pH 6.0, imidazole, pH 7.0, HEPES, pH 7.5, Tris acetate, pH 8.0, Tris-HCl, pH 8.5, Tris borate, pH 9.0 and sodium bicarbonate, pH 10. Dye staining can also be performed in 12.5% trichloroacetic acid. […] A 20-minute wash in water removes the background and sensitive staining is obtained. […] Acetic acid may be included in the staining mixture, typically to a concentration of 5%-7.5% acetic acid, e.g. to improve labeling of gels relative to that obtained for dyes in water. For staining polypeptides in solution, the dye is diluted into an aqueous solution—preferably a buffered solution—that optionally contains a detergent. […]

Excitation maxima ([2]; emission set at 640 nm): 300 nm and 490 nm | Emission maximum ([2]; excitation set at 440 nm): 640 nm | Stability of dye on overnight exposure to 12.5% trichloroacetic acid ([4]; overnight): destroys much of the dye
Structure (SMILES): CCn1c2ccccc2c2cc(/C=C/c3cc[n+](CCCCS(=O)(=O)[O-])c4ccccc34)ccc21 [Compound 9]
Amount of protein that can be visualized (detection sensitivity) [1]: 1 ng | Staining of proteins separated in presence of Triton X-100 or N-benzyl-N,N-dimethylhexadecylammonium chloride [3]: does not stain proteins | Staining of proteins in 12.5% trichloroacetic acid [4]: stains proteins brightly, but also with bright background fluorescence
